Measurements reported in publication PMC8178997 (Chemical Science, 2020).
Where no end group is shown, it is not given here.

Target: T1, NCBD (the [2066–2112]-fragment of CBP) (Mus musculus, UniProt P45481)
T1 sequence (P45481 2066-2112): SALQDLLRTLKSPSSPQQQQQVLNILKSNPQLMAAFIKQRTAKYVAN
Assay: Isothermal titration calorimetry
Type: binding

“EGQMDERALLEQLHQLLSNTDATGLEEIDRALGIPELVNQGQALEPK [[S1043M;D1050E;T1054Q]]” was tested, and the Kd was 188 nM.
